Test results as given in patent US6602710B1, “Screening method for SREBP pathway-specific inhibitors” (Chugai Seiyaku Kabushiki Kaisha, priority 1998, dated 2003).

How the values were obtained:
[1] = system: CHO-K1 cells; assay: amphotericin B cytotoxicity assay (cholesterol synthesis activity) in CHO-K1 cells; assay type: cell-based, Chinese hamster; conditions: 0.1 μg/ml 25-hydroxycholesterol, 24 hours, FIG. 4
[2] = system: 25RA cells; conditions: amphotericin B at various concentrations in PBS, 4 hours, FIG. 3
[3] = system: DM7 cells; assay: amphotericin B cytotoxicity assay in DM7 cells; assay type: cell-based, Chinese hamster; conditions: compared with 25RA, amphotericin B in PBS, 4 hours, FIG. 3
[4] = system: LDL receptor activity of 25RA cells; assay: 125I-LDL binding assay (LDL receptor activity) in 25RA cells; assay type: cell-based, Chinese hamster; conditions: simvastatin + (1 μM), sterols −, 24 hours
Method: (§1) In order to measure LDL receptor activity, the examples of the present invention use the ^125I-LDL binding assay. However, other suitable means may include incorporation of LDL labeled with a fluorescent lipid DiI into cells or ELISA-mediated measurement of the amount of LDL receptors expressed on the surface of cell membranes, and the screening system of the present invention is not specifically limited to those shown herein.
(§2) On day 0, cells were seeded on 6-well plates at a density of 3×10^4 cells/well, and incubated in F-F12. […] On day 4, the cells were incubated at 4° C. for 2 hours, and then washed twice with PBS. Then, incubation was continued at 4° C. in L-F12 (containing 10 mM Hepes-NaOH, pH 7.4) containing 10 μg/ml ^125I-LDL or 10 μg/ml ^125I-LDL and 400 μg/ml LDL. After 5 hours, the cells were washed with buffer B (150 mM NaCl, 50 mM Tris-HCl, 2 mg/ml BSA, pH 7.4), then buffer C (150 mM NaCl, 50 mM Tris-HCl, pH 7.4) each three times, and incubated with 1 ml of buffer D (50 mM NaCl, 10 mM Hepes-NaOH, 4 mg/ml dextran sulfate, pH 7.4) at 4° C. After one hour, buffer D was recovered and assayed for its radioactivity. The protein level in cells remaining in wells was measured by the BCA method to calculate ^125I-LDL binding per mg of […].

[5] = system: LDL receptor activity of CHO-K1 cells; assay: 125I-LDL binding assay (LDL receptor activity) in CHO-K1 cells; assay type: cell-based, Chinese hamster; conditions: simvastatin + (1 μM), sterols −, 24 hours
Method: as §1, §2

## C[C@H](CCCC(C)(C)O)[C@H]1CC[C@H]2[C@@H]3CC=C4C[C@@H](O)CC[C@]4(C)[C@H]3CC[C@]12C [25-hydroxycholesterol]
[1]
  cholesterol synthesis activity (amphotericin B cytotoxicity assay): inhibited cholesterol synthesis activity

## C[C@@H]1[C@H](O)[C@@H](C)/C=C/C=C/C=C/C=C/C=C/C=C/C=C/[C@H](O[C@@H]2O[C@H](C)[C@@H](O)[C@H](N)[C@@H]2O)C[C@@H]2O[C@](O)(C[C@@H](O)C[C@@H](O)[C@H](O)CC[C@@H](O)C[C@@H](O)CC(=O)O[C@H]1C)C[C@H](O)[C@H]2C(=O)O [amphotericin B]
[2]
  survival of cells treated with amphotericin B: decreased depending on the concentration
[3]
  survival of cells treated with amphotericin B: remarkable resistance

## CCC(C)(C)C(=O)O[C@H]1C[C@@H](C)C=C2C=C[C@H](C)[C@H](CC[C@@H]3C[C@@H](O)CC(=O)O3)[C@H]21 [simvastatin]
[4]
  Cell surface binding of [125I]LDL: 20.9 ng/mg protein
[5]
  Cell surface binding of [125I]LDL: 30.1 ng/mg protein
